In US6492365B1, “Microsomal triglyceride transfer protein” (Bristol-Myers Squibb Company, priority 1992, dated 2002):
Counter-ions that a name gives are not always drawn.

Target: T1, bovine MTP (Bos taurus, UniProt P55156)
T1 construct: with about 50-200 ng purified MTP in the well of a 96-well plate; from tissue; host or cells: bovine liver
T1 sequence (P55156 12-887): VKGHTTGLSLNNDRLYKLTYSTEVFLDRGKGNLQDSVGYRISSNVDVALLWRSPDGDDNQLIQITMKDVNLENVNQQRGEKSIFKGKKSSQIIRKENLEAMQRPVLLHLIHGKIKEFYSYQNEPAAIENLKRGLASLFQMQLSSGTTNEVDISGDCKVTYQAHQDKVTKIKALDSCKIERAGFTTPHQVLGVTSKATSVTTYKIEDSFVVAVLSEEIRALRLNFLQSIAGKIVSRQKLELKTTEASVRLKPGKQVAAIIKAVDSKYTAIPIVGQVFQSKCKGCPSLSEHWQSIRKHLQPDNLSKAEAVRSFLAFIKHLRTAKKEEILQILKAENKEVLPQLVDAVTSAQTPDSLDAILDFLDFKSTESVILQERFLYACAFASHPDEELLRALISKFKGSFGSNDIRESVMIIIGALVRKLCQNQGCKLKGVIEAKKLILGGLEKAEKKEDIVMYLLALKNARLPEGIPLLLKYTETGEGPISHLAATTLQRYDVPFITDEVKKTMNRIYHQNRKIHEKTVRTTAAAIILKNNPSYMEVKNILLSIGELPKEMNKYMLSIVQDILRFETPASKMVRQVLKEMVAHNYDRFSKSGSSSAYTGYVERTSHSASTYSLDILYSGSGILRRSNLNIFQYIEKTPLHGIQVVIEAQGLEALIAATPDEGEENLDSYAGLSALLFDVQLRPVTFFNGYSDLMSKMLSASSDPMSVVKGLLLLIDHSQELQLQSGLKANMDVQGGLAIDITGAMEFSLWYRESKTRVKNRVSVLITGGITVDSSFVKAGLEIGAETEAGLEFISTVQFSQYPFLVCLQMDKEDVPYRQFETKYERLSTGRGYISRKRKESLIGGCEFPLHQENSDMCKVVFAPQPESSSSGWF
T1 sequence (P05307 21-510 partner): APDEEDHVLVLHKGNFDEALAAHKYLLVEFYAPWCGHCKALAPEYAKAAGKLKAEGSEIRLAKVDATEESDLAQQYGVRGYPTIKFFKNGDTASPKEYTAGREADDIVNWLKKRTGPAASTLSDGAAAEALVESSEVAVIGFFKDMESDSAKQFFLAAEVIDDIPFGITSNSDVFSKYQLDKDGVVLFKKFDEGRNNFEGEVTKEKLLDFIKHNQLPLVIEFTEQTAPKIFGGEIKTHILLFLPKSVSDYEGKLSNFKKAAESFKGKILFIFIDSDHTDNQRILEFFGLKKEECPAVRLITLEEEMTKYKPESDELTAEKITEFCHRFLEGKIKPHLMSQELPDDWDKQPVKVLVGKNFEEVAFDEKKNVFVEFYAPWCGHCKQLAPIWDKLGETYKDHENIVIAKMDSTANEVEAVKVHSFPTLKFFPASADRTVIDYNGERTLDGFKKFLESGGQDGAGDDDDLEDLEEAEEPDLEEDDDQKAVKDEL
Assay: MTP-catalyzed transfer of radiolabeled TG from donor HDL to acceptor LDL (primary screen)
Assay type: biochemical
Conditions: result in words
Procedure: In this screen, the rate of detectably labeled lipid (for example, NMR, ESR, radio or fluorescently labeled TG, CE, or PC) transfer from donor particles (e.g., donor membranes, vesicles, or lipoproteins) to acceptor particles (e.g., acceptor membranes, vesicles, or lipoproteins) in the presence of MTP is measured. A decrease in the observed transfer rate in the presence of an inhibitor of MTP (e.g., contained in a natural products extract or known compounds) may be used as an assay to identify and isolate inhibitors of MTP function. […]
In a typical 150 μL assay, transfer activity is determined by measuring the transfer of radiolabeled TG from [^3H]-HDL (5 μg cholesterol) donor particles to LDL (50 μg cholesterol) acceptor particles at 37° C. for three hours in 15 mM Tris, pH 7.4, 125 mM MOPS, 30 mM Na acetate, 160 mM NaCl, 2.5 mM Na2 EDTA, 0.02% NaN3, 0.5% BSA with about 50-200 ng purified MTP in the well of a 96-well plate. […] The enzyme activity is based on the percentage of TG transfer and is calculated by the following equation: [formula] […]
Using the method outlined in Example 5, MTP inhibitor compounds A and B were identified. The assay measured the bovine MTP-catalyzed rate of transport of radiolabeled TG from donor HDL to acceptor LDL. […]

O=C1c2ccccc2CN1C1CCN(CCC(c2ccccc2)c2ccccc2)CC1 [compound A, 2-[1-(3,3-diphenylpropyl)-4-piperdinyl]-2,3-dihydro-3-oxo-1H-isoindole hydrochloride]
inhibition of MTP-catalyzed transport of 3H-TG from HDL to LDL: inhibited

COc1ccccc1N1CCN(CC2CC(=O)c3ccc(F)cc3C2)CC1 (centres unmarked) [compound B, 1-[3-(6-fluoro-1-tetralanyl)methyl]-4-O-methoxyphenyl piperazine]
inhibition of MTP-catalyzed transport of 3H-TG from HDL to LDL: MTP inhibitor
